Experimental findings from PMC5848141, “A Pyridazine-Based Fluorescent Probe Targeting Aβ Plaques in Alzheimer's Disease” (Journal of Analytical Methods in Chemistry, 2018) are described below.

The target in this experiment is T1, β-amyloid Aβ42 (aggregates) (Homo sapiens, UniProt P05067).
T1 construct: gene APP; synthetic Aβ42 peptide, aggregated (fibrils)
Kind of experiment: fluorescence saturation titration of probe with […] aggregated Aβ[…] in PBS. The class given is binding. To be noted: read-out: Probe 3.

T1 sequence (P05067 672-713 limits assumed): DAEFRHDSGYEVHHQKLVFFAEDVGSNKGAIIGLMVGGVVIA

In the case of `CN(C)c1ccc(/C=C/n2ncc3c(c2=O)Oc2ccc(C=C(C#N)C(=O)O)cc2O3)cc1` [compound 3, probe 3], the Kd is 350 ± 30 nM.
